Source: patent US7226936B2, “Pyridinic sulfonamide derivatives method of production and use thereof” (University De Liege, priority 2001, dated 2007)

How the values were obtained:
[1] = target: T1, COX-2 (Homo sapiens, UniProt P35354); assay: whole blood assay, COX-2 inhibition; assay type: cell-based
T1 construct: endogenous in cells; host or cells: whole blood (blood cells)
T1 sequence (P35354 18-604): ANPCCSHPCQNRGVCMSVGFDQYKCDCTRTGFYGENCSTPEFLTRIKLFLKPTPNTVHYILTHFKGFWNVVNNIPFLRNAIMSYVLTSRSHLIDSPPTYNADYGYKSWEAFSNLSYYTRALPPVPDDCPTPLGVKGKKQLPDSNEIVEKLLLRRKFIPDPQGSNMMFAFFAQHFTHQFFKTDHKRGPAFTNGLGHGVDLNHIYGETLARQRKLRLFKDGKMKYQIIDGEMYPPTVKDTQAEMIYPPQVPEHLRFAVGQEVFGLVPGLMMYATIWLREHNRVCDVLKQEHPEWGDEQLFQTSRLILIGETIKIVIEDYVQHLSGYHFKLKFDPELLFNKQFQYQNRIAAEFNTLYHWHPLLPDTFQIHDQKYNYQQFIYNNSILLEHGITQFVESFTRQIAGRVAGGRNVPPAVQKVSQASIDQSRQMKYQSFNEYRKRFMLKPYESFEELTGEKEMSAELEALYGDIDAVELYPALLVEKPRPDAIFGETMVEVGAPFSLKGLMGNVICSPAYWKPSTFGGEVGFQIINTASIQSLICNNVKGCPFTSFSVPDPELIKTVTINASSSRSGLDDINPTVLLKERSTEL

[2] = system: rat paw oedema; assay: Carrageenin-induced rat paw oedema model; assay type: in vivo, Wistar rats; details: for percentage of growth of the paw after injection of carrageneen: 1 h before carrageenin, paw weighed 3 h after, mean±standard deviation, n=6, control 96 ± 8.7
Protocol: The activity of the derivatives has also been evaluated by using a rat paw oedema pharmacological model.
In Carrageenin-induced rat paw oedema model, Wistar rats were used. The mean weight of the animals was 250 g. The animals were treated with an intraperitoneal injection of the drug at the appropriate concentration (solution at the concentration of 10 mg/mL in DMSO). Lambda carrageenin (0.1 mL; 1%) was injected one hour later in the plantar region of the right hand paw. Three hours thereafter, the rats were euthanasied by injection of nembutal (100 mg/kg) and the paws were cutted at the ankle. The swelling was calculated as a percentage increase in the weight of the control paw.
Results are expressed as percentage of growth of the paw after injection of carrageneen (mean±standard deviation, n=6).

O=S(=O)(Nc1ccncc1Oc1ccccc1)C(F)(F)F [Compound 1, N-(3-phenoxy-4-pyridinyl)trifluoromethane-sulfonamide]
activity as COX-2 inhibitor (in words) ([1]; conclusion from Table 1): active as COX-2 inhibitor | IC50 ([1]; estimated IC50, whole blood assay): 400 nM | percentage of growth of the paw after injection of carrageneen ([2]; 5 mg/kg intraperitoneal): 101.0 ± 8.1 percentage | percentage of growth of the paw after injection of carrageneen ([2]; 10 mg/kg intraperitoneal): 74.7 ± 7.2 percentage | percentage of growth of the paw after injection of carrageneen ([2]; 30 mg/kg intraperitoneal): 54.1 ± 17.5 percentage | anti-inflammatory effect in vivo (in words) ([2]; conclusion from Table 2): presents an anti-inflammatory effect in vivo
